# Laboratory results taken from patent US11135203B2, “Forazolines, compositions thereof and uses thereof” (Wisconsin Alumni Research Foundation, priority 2013, dated 2021).
# Key:
# [1] = system: Saccharomyces cerevisiae deletion mutant strains; test: Chemical genomic profiling against deletion mutant yeast strains; format: cell-based; conditions: for sensitivity of mutant LEM3-Δ: chemical genomic profile of known antifungal agents
# Method: This method has been used to explore the mechanism of action for bioactive compounds, including natural products. Forazoline A was screened against over four thousand deletion mutant yeast strains, genomic DNA was extracted, and mutant-specific DNA barcodes were amplified and sequenced by Illumina sequencing. Forazoline A sensitive and resistant mutants were determined by quantification of DNA-barcodes, which provided a chemical genomic profile used to evaluate the mechanism of action.
# [2] = Water solubility; format: physicochemical
# [3] = system: Candida albicans K1; test: Neutropenic murine disseminated candidiasis model, kidney organism burden; format: in vivo; conditions: Candida albicans K1, single dose 2.5, 0.78 and 0.125 mg/kg, after 8 hours
# Description: (§1) Animals. Six-week-old ICR Swiss specific-pathogen-free female mice weighing 23 to 27 g were used for all studies. Animals were maintained in accordance with the American Association for Accreditation of Laboratory Care criteria. Animal studies were approved by the University of Wisconsin Animal Care Committee.
# Infection model. A neutropenic, murine, disseminated candidiasis model was used for the treatment studies. Mice were rendered neutropenic (polymorphonuclear cell counts of <100 mm^3) by injecting cyclophosphamide subcutaneously 4 days before infection (150 mg/kg of body weight) and 1 day before infection (100 mg/kg). Candida albicans K1 was subcultured on Sabouraud dextrose agar (SDA) 24 h prior to infection. The inocula were prepared by placing three to five colonies into 5 ml of sterile 0.15 M NaCl warmed to 35° C. The final inoculum was adjusted to 0.6 transmittance at 530 nm. Fungal counts of the inocula determined by viable counts on SDA were 5.63±0.38 log10 CFU/mL (mean±standard deviation).
# Disseminated infection with C. albicans organisms was produced by injection of 0.1 ml of the inoculum via the lateral tail vein 2 h prior to the start of antifungal therapy. At the end of the study period (8 h), animals were sacrificed by CO2 asphyxiation. […] The results are expressed as the mean and standard deviation of the log10 CFU/kidney from three mice. […]
# [4] = Synergy studies with amphotericin B (AMB); format: cell-based; conditions: combination with amphotericin B
# [5] = Toxic effects observed in treated mice of the candidiasis model; format: in vivo; conditions: neutropenic mice, 2.5, 0.78 and 0.125 mg/kg, 8 hours
# Method: as §1
# Drug Treatment. […] The intravenous dose was given by the lateral tail vein via a 200 μL infusion. The intraperitoneal dose was administered in 500 μL volume. Control mice were treated with saline. Groups of mice were sacrificed at the start of therapy and 8 hours after therapy for determination of organism burden in the kidney as described above.
structure (smiles),measurement,setting,value
CC[C@H](C)C[C@H](C)CCCCCCCCC(=O)N[C@H]1C[C@@H](O)[C@@H](NCCN)NC(=O)[C@@H]2[C@@H](O)CCN2C(=O)[C@H]([C@H](O)CCN)NC(=O)[C@H]([C@H](O)[C@@H](O)c2ccc(O)cc2)NC(=O)[C@@H]2C[C@@H](O)CN2C(=O)[C@H]([C@@H](C)O)NC1=O [caspofungin],sensitivity of mutant LEM3-Δ,[1],not among the most sensitive strains
"C[C@@H]1[C@H](O)[C@@H](C)/C=C/C=C/C=C/C=C/C=C/C=C/C=C/[C@H](O[C@@H]2O[C@H](C)[C@@H](O)[C@H](N)[C@@H]2O)C[C@@H]2O[C@](O)(C[C@@H](O)C[C@@H](O)[C@H](O)CC[C@@H](O)C[C@@H](O)CC(=O)O[C@H]1C)C[C@H](O)[C@H]2C(=O)O [amphotericin, amphotericin B]",sensitivity of mutant LEM3-Δ,[1],not among the most sensitive strains
CO[C@H]1[S+]([O-])C2=CC(=O)[C@](C)(O[C@H]3CC[C@H](N(C)C)[C@@H](C)O3)[C@@H](O)CCC(C)=C[C@@H]3[C@@H](C)[C@](C)(Cl)[C@@H](C[C@H]3O[C@H]3CC[C@H](N(C)C)[C@@H](C)O3)OC(=O)[C@@H]3CSC(=N3)[C@]1(C)N2 (some centres unmarked) [Forazoline A],water solubility,[2],about 5 mg/mL
same,reduction in organism burden compared to control mice,[3],1.5+/−0.12 log10 cfu/kidney
same,gene enrichment of top sensitive mutant strains (P<0.0001),"[1]; GO: 0045332, P=0.0009, driven by LEM3 and FPK1 deletion mutants",significantly enriched for genes involved in phospholipid translocation
same,interaction when tested with AMB,[4],synergy
same,toxic effects from the compound,[5],No toxic effects
OC(Cn1cncn1)(Cn1cncn1)c1ccc(F)cc1F [fluconazole],sensitivity of mutant LEM3-Δ,[1],not among the most sensitive strains
